This passage reports IC50 results from patent US20240270748A1 (Merck Patent GmbH, priority 2021, published 2024).

One assay deals with YAP-TEAD interaction. As to the kind of experiment: SK-HEP-1 reporter assay (8xTEAD responsive elements driving NanoLuc luciferase). Format: cell-based. As to conditions: Homo sapiens, SK-HEP1, SK-HEP-1 reporter assay. Summed up:
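Reporter read-out: NanoLuc luminescence from 8×TEAD elements stably integrated in SK-HEP-1 cells, after 24 h compound exposure at 37° C. Ten concentrations tested in duplicate, top 30 μM final, 0.3% DMSO; IC50 from curve.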
For orientation: A reporter such as luciferase makes a cellular process visible.

For another assay, the system named is NCI-H226 cells. As to the kind of experiment: Viability assay in NCI-H226 (Yap-dependent) cells, CyQuant. It counts as cell-based, human. As to conditions: Homo sapiens, NCI-H226, 96 h. The gist of the method:
(§1)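 Seeded cells were dosed 24 h later in duplicate (10-point, 1:3 dilutions, top 30 μM final, 0.3% DMSO) and incubated 96 h at 37 °C. Viability was read with CyQUANT DNA dye after 1 h, fluorescence bottom read. NCI-H226 in RPMI 1640 medium; SW620 YAP/TAZ CRISPR knockout in DMEM/F-12 medium.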

For a further assay, the system named is SW620 Yap KO cells. As to the kind of experiment: Viability assay in SW620 Yap KO (Yap independent) cells, CyQuant. It counts as cell-based. The note with it: Homo sapiens, SW-620, 96 h, n.d. = value not detectable below threshold given in parentheses. Summed up:
as §1

The mark [1] stands for this setting: n.d. = value not detectable below threshold given in parentheses.

Each structure is given as a SMILES string.

For the compound `Cn1cc2c3cc(CO)ccc3n(-c3ccc(C(F)(F)F)cc3)c2n1` [Example C182, {2-methyl-8-[4-(trifluoromethyl)phenyl]-2H,8H-pyrazolo[3,4-b]indol-5-yl}methanol], the figures for the IC50 in the assay with YAP-TEAD interaction (class symbols), with NCI-H226 cells (class symbols) and in the assay on SW620 Yap KO cells were 10 to 100 nM, 100 to 1000 nM and greater than 30000 nM, respectively.
For `C[C@H](NC(=O)c1ccc2c(c1)c1nn(C)nc1n2-c1ccc(C(F)(F)F)cc1)c1cccc(N)n1` [Example C183, N-[(1S)-1-(6-aminopyridin-2-yl)ethyl]-2-methyl-4-[4-(trifluoromethyl)phenyl]-2H,4H-[1,2,3]triazolo[4,5-b]indole-7-carboxamide] the same measures were 100 to 10000 nM, 1 to 100 nM and greater than 3000 nM.
For `C[C@H](NC(=O)c1ccc2c(c1)c1nn(C)nc1n2-c1ccc(C(F)(F)F)cc1)c1ccccn1` [Example C184, 2-methyl-N-[(1S)-1-(pyridin-2-yl)ethyl]-4-[4-(trifluoromethyl)phenyl]-2H,4H-[1,2,3]triazolo[4,5-b]indole-7-carboxamide] the same measures were 10 to 100 nM, 1 to 100 nM and greater than 30000 nM.
For `C[C@H](NC(=O)c1ccc2c(c1)c1nn(C)nc1n2-c1ccc(C(F)(F)F)cc1)c1ccncc1` [Example C185, 2-methyl-N-[(1S)-1-(pyridin-4-yl)ethyl]-4-[4-(trifluoromethyl)phenyl]-2H,4H-[1,2,3]triazolo[4,5-b]indole-7-carboxamide] the same measures were 10 to 100 nM, 1 to 100 nM and greater than 3000 nM.
`[2H]C1([2H])C(n2c3ccc(C(=O)O)cc3c3cn(C)nc32)C([2H])([2H])C([2H])([2H])C([2H])([2H])C1([2H])[2H]` [Example C193, 8-[(2,2,3,3,4,4,5,5,6,6-^2H10)cyclohexyl]-2-methyl-2H,8H-pyrazolo[3,4-b]indole-5-carboxylic acid]: the IC50 with YAP-TEAD interaction (class symbols) was 100 to 10000 nM; in the assay with NCI-H226 cells (setting [1]), greater than 30000 nM; in the assay with SW620 Yap KO cells it was greater than 30000 nM.
As to `[2H]C1([2H])C(n2c3ccc(C(=O)NC)cc3c3cn(C)nc32)C([2H])([2H])C([2H])([2H])C([2H])([2H])C1([2H])[2H]` [Example C194, 8-[(2,2,3,3,4,4,5,5,6,6-^2H10)cyclohexyl]-N,2-dimethyl-2H,8H-pyrazolo[3,4-b]indole-5-carboxamide], the IC50 in the assay with YAP-TEAD interaction (class symbols) is 100 to 10000 nM; in the assay with NCI-H226 cells (class symbols) it was 1000 to 10000 nM; in the assay on SW620 Yap KO cells it was greater than 30000 nM.
In the same order, the values of `[2H]C1([2H])C(n2c3ccc(C(=O)N[C@@H](CO)c4ccccn4)cc3c3cn(C)nc32)C([2H])([2H])C([2H])([2H])C([2H])([2H])C1([2H])[2H]` [Example C196, 8-[(2,2,3,3,4,4,5,5,6,6-^2H10)cyclohexyl]-N-[(1R)-2-hydroxy-1-(pyridin-2-yl)ethyl]-2-methyl-2H,8H-pyrazolo[3,4-b]indole-5-carboxamide] are 100 to 10000 nM, 100 to 1000 nM and greater than 30000 nM.
As to `Cn1cnc2c1c1cc(C3CC(Cl)=NO3)ccc1n2-c1ccc(C(F)(F)F)cc1` (stereo not drawn) [Example C198, 3-chloro-5-{1-methyl-4-[4-(trifluoromethyl)phenyl]-1H,4H-imidazo[4,5-b]indol-7-yl}-4,5-dihydro-1,2-oxazole], the concentration for half-maximal inhibition (IC50) in the assay on YAP-TEAD interaction (class symbols) was 10 to 100 nM; with NCI-H226 cells (class symbols), 1 to 100 nM; in the assay on SW620 Yap KO cells, greater than 3000 nM.
In the same order, the values of `Cn1cc2c3cc(C(=O)NCc4ccncc4)ccc3n(C3CC4(C3)CC(F)(F)C4)c2n1` [Example C208, 8-{6,6-difluorospiro[3.3]heptan-2-yl}-2-methyl-N-[(pyridin-4-yl)methyl]-2H,8H-pyrazolo [3,4-b]indole-5-carboxamide] are 10 to 100 nM, 100 to 1000 nM and greater than 30000 nM.
For `Cn1cc2c3cc(C(=O)NCc4ccncc4)ccc3n(-c3ccc(C(F)F)cc3)c2n1` [Example C209, 8-[4-(difluoromethyl)phenyl]-2-methyl-N-[(pyridin-4-yl)methyl]-2H,8H-pyrazolo[3,4-b]indole-5-carboxamide] the same measures were 10 to 100 nM, 100 to 1000 nM and greater than 30000 nM.
On to `Cn1cc2c3cc(C(=O)N=S(=O)(CCO)Cc4ccncc4)ccc3n(-c3ccc(C(F)(F)F)cc3)c2n1` (stereo not drawn) [Example C216, N-[(2-hydroxyethyl)(oxo)[(pyridin-4-yl)methyl]-λ^6-sulfanylidene]-2-methyl-8-[4-(trifluoromethyl)phenyl]-2H,8H-pyrazolo[3,4-b]indole-5-carboxamide], for which the IC50 in the assay with YAP-TEAD interaction (setting [1]) is greater than 9500 nM; in the assay with NCI-H226 cells (class symbols), 1 to 100 nM; in the assay with SW620 Yap KO cells, greater than 3000 nM.
As to `Cc1cc(C(CO)NC(=O)c2ccc3c(c2)c2cn(C)nc2n3-c2ccc(C(F)(F)F)cc2)ccn1` (stereo not drawn) [Example C219, N-[2-hydroxy-1-(2-methylpyridin-4-yl)ethyl]-2-methyl-8-[4-(trifluoromethyl)phenyl]-2H,8H-pyrazolo[3,4-b]indole-5-carboxamide], the IC50 in the assay with YAP-TEAD interaction (class symbols) is 10 to 100 nM; in the assay with NCI-H226 cells (class symbols), 100 to 1000 nM; with SW620 Yap KO cells it was greater than 3000 nM.
For `Cc1cc(C(CO)NC(=O)c2ccc3c(c2)c2nn(C)nc2n3-c2ccc(C(F)(F)F)cc2)ccn1` (stereo not drawn) [Example C220, N-[2-hydroxy-1-(2-methylpyridin-4-yl)ethyl]-2-methyl-4-[4-(trifluoromethyl)phenyl]-2H,4H-[1,2,3]triazolo[4,5-b]indole-7-carboxamide] the same measures were 10 to 100 nM, 1 to 100 nM and greater than 3000 nM.
As for `Cn1cc2c3cc(C(=O)NC(CCO)c4ccccn4)ccc3n(-c3ccc(C(F)(F)F)cc3)c2n1` (stereo not drawn) [Example C225, N-[3-hydroxy-1-(pyridin-2-yl)propyl]-2-methyl-8-[4-(trifluoromethyl)phenyl]-2H,8H-pyrazolo[3,4-b]indole-5-carboxamide], the IC50 was 10 to 100 nM in the assay with YAP-TEAD interaction (class symbols), 1 to 100 nM with NCI-H226 cells (class symbols) and greater than 30000 nM in the assay with SW620 Yap KO cells.
For `Cn1nc2c3cc(C(=O)NC(CCO)c4ccccn4)ccc3n(-c3ccc(C(F)(F)F)cc3)c2n1` (stereo not drawn) [Example C226, N-[3-hydroxy-1-(pyridin-2-yl)propyl]-2-methyl-4-[4-(trifluoromethyl)phenyl]-2H,4H-[1,2,3]triazolo[4,5-b]indole-7-carboxamide] the same measures were 10 to 100 nM, 1 to 100 nM and greater than 3000 nM.
For `CNC(=O)c1cnc2c(c1)c1cn(C)nc1n2-c1ccc(C(F)(F)F)cc1` [Example C227, N,4-dimethyl-7-[4-(trifluoromethyl)-phenyl]-4,5,7,9-tetraazatricyclo [6.4.0.0^2,6]dodeca-1(8),2,5,9,11-pentaene-11-carboxamide] the same measures were 10 to 100 nM, 1 to 100 nM and greater than 30000 nM.
In the same order, the values of `C[C@H](CO)NC(=O)c1ccc2c(c1)c1cn(C)nc1n2-c1ccc(C(F)F)cc1` [Example C247, 8-[4-(difluoromethyl)phenyl]-N-[(2R)-1-hydroxypropan-2-yl]-2-methyl-2H,8H-pyrazolo[3,4-b]indole-5-carboxamide] are 10 to 100 nM, 1 to 100 nM and greater than 30000 nM.
Regarding `Cn1cc2c3cc(C(=O)N[C@@H](CO)c4ccccn4)ccc3n(-c3ccc(C(F)F)cc3)c2n1` [Example C248, 8-[4-(difluoromethyl)phenyl]-N-[(1R)-2-hydroxy-1-(pyridin-2-yl)ethyl]-2-methyl-2H,8H-pyrazolo[3,4-b]indole-5-carboxamide], the IC50 with YAP-TEAD interaction (class symbols) is 10 to 100 nM; with NCI-H226 cells (class symbols), 1 to 100 nM; in the assay with SW620 Yap KO cells it was greater than 30000 nM.
As to `Cn1nc2c3cc(C(=O)N[C@H](CO)c4ccccn4)ccc3n(-c3ccc(C(F)(F)F)cc3)c2n1` [Example C249, N-[(1S)-2-hydroxy-1-(pyridin-2-yl)ethyl]-2-methyl-4-[4-(trifluoromethyl)phenyl]-2H,4H-[1,2,3]triazolo[4,5-b]indole-7-carboxamide], the IC50 with YAP-TEAD interaction (class symbols) is 10 to 100 nM; in the assay on NCI-H226 cells (class symbols), 100 to 1000 nM; with SW620 Yap KO cells, greater than 30000 nM.
Turning to `C[C@@H](NC(=O)c1ccc2c(c1)c1cn(C)nc1n2-c1ccc(C(F)(F)F)cc1)c1ccc(N)nc1` [Example C257, N-[(1R)-1-(6-aminopyridin-3-yl)ethyl]-2-methyl-8-[4-(trifluoromethyl)phenyl]-2H,8H-pyrazolo[3,4-b]indole-5-carboxamide], the figures for the IC50 in the assay with YAP-TEAD interaction (class symbols), in the assay with NCI-H226 cells (class symbols) and in the assay with SW620 Yap KO cells were 100 to 10000 nM, 1 to 100 nM and greater than 30000 nM, respectively.
In the same order, the values of `Cn1ccc(C(CO)NC(=O)c2ccc3c(c2)c2cn(C)nc2n3-c2ccc(C(F)(F)F)cc2)n1` (stereo not drawn) [Example C260, N-[2-hydroxy-1-(1-methyl-1H-pyrazol-3-yl)ethyl]-2-methyl-8-[4-(trifluoromethyl)phenyl]-2H,8H-pyrazolo[3,4-b]indole-5-carboxamide] are 10 to 100 nM, 1 to 100 nM and greater than 30000 nM.
In the same order, the values of `Cn1nc2c3cc(C(=O)N=S4(=O)CCNCC4)ccc3n(-c3ccc(C(F)(F)F)cc3)c2n1` [Example C261, 2-methyl-N-(1-oxo-1lambda6-thiomorpholin-1-ylidene)-4-[4-(trifluoromethyl)phenyl]-2H,4H-[1,2,3]triazolo[4,5-b]indole-7-carboxamide] are 10 to 100 nM, 1 to 100 nM and greater than 30000 nM.

Broadly, the IC50 is the midpoint of a concentration-inhibition curve.
